Data taken from ChEMBL document CHEMBL1151117, “Irritant principles of the spurge family (Euphorbiaceae). XIII. Oligocyclic and macrocyclic diterpene esters from latices of some Euphorbia species utilized as source plants of honey” (J Nat Prod, 1988).

Key:
Assay type in all cases: ADME, organism-based
Mus musculus [1] = species: Mus musculus; experiment: Skin irritant activity in SIM mouse ear assessed as irritation unit per ear after 24 hrs; settings: in vivo
Mus musculus [2] = species: Mus musculus; experiment: Skin irritant activity in NMRI mouse ear assessed as irritant dose 50 per ear after 24 hrs; settings: in vivo, topical_or_ocular
Mus musculus [3] = species: Mus musculus; experiment: Skin irritant activity in NMRI mouse ear assessed as irritancy 50 after 24 hrs; settings: in vivo

Row | Compound | Activity (Mus musculus [1]) | Activity (Mus musculus [2]) [nmol] | Activity (Mus musculus [3]) [nmol⁻¹]
1 | C/C=C(\C)C(=O)O[C@H]1[C@H]2[C@@H]([C@@H](O)[C@@H](C)C(=O)[C@@]34C[C@H](C)[C@H](OC(C)=O)[C@]3(/C=C(\C)[C@H]1OC(=O)C(C)CC)O4)C2(C)C (some centres not stated) | > 1000 µg |  | 
2 | C/C=C(\C)C(=O)O[C@@]12C[C@@H](C)[C@@]3(O)[C@@H](C=C(CO)C[C@]4(O)C(=O)C(C)=C[C@@H]34)[C@@H]1C2(C)C |  | 0.28 | 3.6
3 | C/C=C(/C)C(=O)O[C@@]12C[C@@H](C)[C@@]3(O)[C@@H](C=C(COC(C)=O)C[C@]4(O)C(=O)C(C)=C[C@@H]34)[C@@H]1[C@@]2(C)COC(=O)C(C)C |  | 0.91 | 1.1
4 | CCCCCCCCCCCCCC(=O)O[C@@H]1[C@@H](C)[C@@]2(O)[C@@H](C=C(CO)C[C@]3(O)C(=O)C(C)=C[C@@H]23)[C@@H]2C(C)(C)[C@]12OC(C)=O [PHORBOL MYRISTATE ACETATE] | 0.05 µg | 0.016 | 63
5 | CCC(C)C(=O)O[C@@]12C[C@@H](C)[C@@]3(O)[C@@H](C=C(CO)C[C@]4(O)C(=O)C(C)=C[C@@H]34)[C@@H]1C2(C)C (some centres not stated) |  | 0.83 | 1.2
6 | C/C=C(\C)C(=O)O[C@@]12C[C@@H](C)[C@@]3(O)[C@@H](C=C(COC(C)=O)C[C@]4(O)C(=O)C(C)=C[C@@H]34)[C@@H]1C2(C)C |  | 1.2 | 0.8
7 | C/C=C(\C)C(=O)O[C@@H]1[C@@H]2[C@H]([C@H](OC(C)=O)[C@H](OC(C)=O)/C(C)=C/[C@@]34O[C@@]3(C[C@H](C)[C@@H]4OC(C)=O)C(=O)[C@@H]1C)C2(C)C | > 1000 µg |  | 
8 | CC(=O)O[C@@]12C[C@@H](C)[C@@]3(O)[C@@H](C=C(CO)C[C@]4(O)C(=O)C(C)=C[C@@H]34)[C@@H]1C2(C)C [PROSTRATIN] | > 7 nmol |  | 
9 | CC1=C[C@H]2[C@@]3(O)[C@H](C)C[C@]4(OC(=O)C(C)C)[C@H]([C@@H]3C=C(CO)C[C@]2(O)C1=O)C4(C)C |  | 0.53 | 1.9
10 | C/C=C(/C)C(=O)O[C@@]12C[C@@H](C)[C@@]3(O)[C@@H](C=C(COC(C)=O)C[C@]4(O)C(=O)C(C)=C[C@@H]34)[C@@H]1[C@@]2(C)COC(=O)C(C)CC (some centres not stated) |  | 2.4 | 0.4
11 | C/C=C(\C)C(=O)O[C@@H]1[C@@H]2[C@H]([C@H](OC(=O)/C(C)=C/C)[C@H](OC(C)=O)/C(C)=C/[C@@]34O[C@@]3(C[C@H](C)[C@@H]4OC(C)=O)C(=O)[C@@H]1C)C2(C)C | > 1000 µg |  | 
12 | CC(=O)OCC1=C[C@H]2[C@@H]3C(C)(C)[C@]3(OC(=O)C(C)C)C[C@@H](C)[C@]2(O)[C@@H]2C=C(C)C(=O)[C@@]2(O)C1 |  | 1.5 | 0.7
13 | CCC(C)C(=O)O[C@@]12C[C@@H](C)[C@@]3(O)[C@@H](C=C(COC(C)=O)C[C@]4(O)C(=O)C(C)=C[C@@H]34)[C@@H]1C2(C)C (some centres not stated) |  | 1.5 | 0.7
14 | C/C=C(\C)C(=O)O[C@@H]1[C@@H]2[C@H]([C@H](OC(=O)C(C)CC)[C@H](OC(C)=O)/C(C)=C/[C@@]34O[C@@]3(C[C@H](C)[C@@H]4OC(C)=O)C(=O)[C@@H]1C)C2(C)C (some centres not stated) | > 1000 µg |  | 
15 | C/C=C(/C)C(=O)O[C@@]12C[C@@H](C)[C@@]3(O)[C@@H](C=C(CO)C[C@]4(O)C(=O)C(C)=C[C@@H]34)[C@@H]1[C@@]2(C)COC(=O)C(C)C |  | 0.25 | 4
16 | C/C=C(\C)C(=O)O[C@@H]1[C@@H]2[C@H]([C@H](OC(=O)/C(C)=C/C)[C@H](OC(C)=O)/C(C)=C/[C@@]34O[C@@]3(C[C@H](C)[C@@H]4O)C(=O)[C@@H]1C)C2(C)C | > 1000 µg |  | 
